Our source for the TGI and GI50 values is PubChem BioAssay (NCI).

Structures are written as SMILES.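 Method: 48-hour compound exposure of cells in 96-well plates, five concentrations, linear interpolation of endpoints. Here, GI50 denotes the concentration required for 50% inhibition of growth. TGI: total growth inhibition.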

Holding throughout (experiment): NCI-60 cell line screen, 48 h
Test [1] relates to HOP-62 NSCLC.
Test [2] concerns NCI-H460 lung.
Test [3] deals with LOX IMVI melanoma.
Test [4] relates to TK-10 renal.
Test [5] has as its system BT-549 breast.
The subject of test [6] is SK-MEL-2 melanoma.
The subject of test [7] is A498 renal.
The test system of test [8] is U251 CNS.
Test [9] deals with NCI-H522 lung.
Test [10] relates to HOP-92 NSCLC.

Take `C=CC(=O)N1CC2(CCN(c3nc(OC4CCN(CCCOC)CC4)nc4c(OCC(F)(F)F)c(-c5c(C)ccc6[nH]ncc56)c(C5CC5)cc34)CC2)C1`: the TGI in test [1] came to 19.6 µM; in test [2] it was 4.4 µM; in [3] it was 3.15 µM; in test [4] it was 14.3 µM; in test [5] it was 5.71 µM; in [6], 4.77 µM. The TGI in [7] was determined as 29.5 µM; in test [8] it was 10 µM; in [9], 3.57 µM; in test [10], 11 µM. The GI50 in test [2] is 2.09 µM; in [3] it was 1.7 µM; in test [4], 3.73 µM; in test [5], 2.26 µM; in test [6] it was 2.19 µM; in [7], 15.4 µM. Further, the GI50 in [8] was 2.81 µM; in test [9], 1.78 µM; in test [10], 3.53 µM.

Consider `CN1CCN(C)C12C=c1ccccc1=CC21CC1`, for which the TGI in [1] was over 100 µM; in test [2], over 75.1 µM; in test [3], 90 µM; in [4], over 100 µM; in [5], over 100 µM; in [6] it was 53.7 µM. Moreover, the TGI in test [7] is over 100 µM; in test [8], over 82 µM; in [9], 52.9 µM; in [10] it was 79.5 µM.

Take `Nc1nc(Cl)c2ncn(Cc3ccc(C45CC6CC(CC(C6)C4)C5)c(O)c3)c2n1`: the GI50 is 1.85 µM in test [1]; 4.03 µM in test [2]; 2.38 µM in [3]; 2.2 µM in [4]; 6.82 µM in test [5]; 16 µM in test [6]. Further, the GI50 is 8.15 µM in test [7], 3.09 µM in test [8], 6.01 µM in [9] and 1.48 µM in [10]. In addition, the TGI in test [1] worked out at 3.77 µM; in test [2] it was 15.6 µM; in test [3], 13 µM; in test [4] it was 8.93 µM; in [5] it was 25.2 µM; in [6] it was 48.3 µM. Also, the TGI is 24.4 µM in test [7], 12.9 µM in test [8], 23.8 µM in test [9] and 6.19 µM in [10].

As for `Cn1c2ccccc2c2c(-c3ccccc3)[n+]3ccncc3nc21`, the GI50 in [1] is over 100 µM; in test [2], over 100 µM; in test [3], over 100 µM; in test [4], over 100 µM; in test [5] it was 29.6 µM; in test [6] it was 55 µM. The GI50 is over 100 µM in test [7], 47.4 µM in test [8], 48 µM in [9] and 96.6 µM in test [10]. The TGI in test [1], in test [2], in test [3], in [4], in test [5] and in test [6] was over 100 µM in each case. For the same compound, the TGI in [7], in test [8], in test [9] and in test [10] was over 100 µM throughout.

Take `O=C(/C(Br)=C/c1ccccc1)c1ccccc1`: the GI50 in test [1] was 2.29 µM; in test [2], 17.8 µM; in test [3], 0.433 µM; in test [4], 3.38 µM; in test [5], 2.08 µM; in [6], 3.17 µM. In addition, the GI50 was 15.5 µM in test [7], 1.83 µM in test [8], 0.396 µM in test [9] and 1.87 µM in [10]. For the same compound, the TGI in [1] was found to be 6.1 µM; in [2], 38 µM; in test [3], 1.59 µM; in test [4] it was 14.6 µM; in test [5], 4.6 µM; in [6], 7.38 µM. The TGI was determined as 30 µM in test [7], 4.4 µM in [8], 2.23 µM in test [9] and 4.28 µM in [10].

Consider `CC[CH2][Sn]([CH2]CC)([O]C(=O)c1cccnc1SC)[O][Sn]([CH2]CC)([CH2]CC)[O]C(=O)c1cccnc1SC`, for which the GI50 in test [1] was 2.32 µM; in [2], 1.99 µM; in test [3], 0.23 µM; in test [4] it was 0.409 µM; in test [5], 1.41 µM; in [6] it was 0.299 µM. Besides, the GI50 in [7] is 0.246 µM; in [8], 0.25 µM; in test [9], under 0.0196 µM; in test [10] it was 0.342 µM. Further, the TGI in test [1] came out at 5.31 µM; in test [2], 4.94 µM; in [3] it was 0.567 µM; in [4], 1.09 µM; in test [5] it was 2.71 µM; in [6], 0.823 µM. The TGI in [7] was 0.629 µM; in [8] it was 0.592 µM; in [9], 0.0784 µM; in [10], 0.829 µM.
